In series [1] the test system is human leukemia EU-1 cell line. In words: WST antiproliferative/cytotoxicity assay, EU-1. The series is classed as cell-based. The following applies: for fold drop in potency, para to meta position: 16 vs 13, 17 vs 14; for fold increased potency compared to 2: para-ester replaced by acetyl or isobutyryl.
Series [2] relates to human normal bone marrow mononuclear (NBMM) cells. In words: Clonogenic assays for CFU-GM and BFU-E. The series is classed as cell-based. Particulars: 1 μM, colonies counted after 14 days, vs control.
The target in series [3] is T1, MDM2 (Homo sapiens, UniProt Q00987). Put plainly: MDM2 binding. The following applies: subsequent mechanistic studies, no data shown.
For series [4] the following is noted: mice; cited from earlier work.
Series [5] concerns the target T1, MDM2. In words: Western blot, MDM2 expression in EU-1 cells. It counts as cell-based. For orientation: Immunoblotting shows a protein as a band on a membrane.
The test system of another series is XIAP. Put plainly: Western blot, XIAP expression in EU-1 cells. The series is classed as cell-based, human. Particulars: dose-dependent.
In series [6] the test system is ALL cell lines (EU-1 and EU-3). In words: WST cytotoxicity assay, ALL cell lines. The series is classed as cell-based. The following applies: Homo sapiens, 48 h.
In series [7] the test system is NB cell lines (NB-1643, SHEP1, and LA1–55N). Put plainly: WST cytotoxicity assay, NB cell lines. The series is classed as cell-based. Particulars: Homo sapiens, 48 h.
In the next series the test system is p53, p21 and PUMA. Put plainly: Western blot, p53 and its targets p21 and PUMA. The series is classed as cell-based, human. The following applies: EU-1 cells; accompanying MDM2 downregulation.

Structures are written as SMILES.

T1 sequence (Q00987 whole entry): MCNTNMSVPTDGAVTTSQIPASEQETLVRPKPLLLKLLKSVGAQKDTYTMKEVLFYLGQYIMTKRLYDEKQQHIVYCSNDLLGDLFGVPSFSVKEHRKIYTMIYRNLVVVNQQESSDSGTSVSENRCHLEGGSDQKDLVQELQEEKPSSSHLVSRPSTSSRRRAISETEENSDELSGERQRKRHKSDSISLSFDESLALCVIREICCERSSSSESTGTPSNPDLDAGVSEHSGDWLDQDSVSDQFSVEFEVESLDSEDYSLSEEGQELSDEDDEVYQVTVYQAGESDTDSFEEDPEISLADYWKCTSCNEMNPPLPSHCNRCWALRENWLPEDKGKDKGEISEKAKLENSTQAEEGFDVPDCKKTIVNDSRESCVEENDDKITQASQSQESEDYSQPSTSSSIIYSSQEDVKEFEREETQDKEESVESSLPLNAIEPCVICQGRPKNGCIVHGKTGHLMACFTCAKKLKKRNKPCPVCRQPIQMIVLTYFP

On to `Cc1ccc(NS(=O)(=O)c2ccc3c(c2)C2CCCC2C(c2ccc(C(=O)C(C)C)cc2)N3)cc1C` (stereo not drawn) [Compound 28, N-(3,4-Dimethylphenyl)-4-(4-isobutyrylphenyl)-2,3,3a,4,5,9b-hexahydro-1H-cyclopenta[c]quinoline-8-sulfonamide], for which the “fold drop in potency compared to 27” value in series [1] (saturation of cyclopentene double bond) is listed as “approximately 3 fold”.

For the molecule `Cc1ccc(NS(=O)(=O)c2ccc3c(c2)C2OCCC2C(c2ccc(C(=O)C4CC4)cc2)N3)cc1C` (stereo not drawn) [Compound 22, 4-(4-(Cyclopropanecarbonyl)phenyl)-N-(3,4-dimethylphenyl)-2,3,3a,4,5,9b-hexahydrofuro[3,2-c]quinoline-8-sulfonamide], in series [1] (EU-1 IC50 ratio), the “fold decreased potency compared to 14” value turned out to be 10 fold.

In the case of `Cc1ccc(NS(=O)(=O)c2ccc3c(c2)C2OCCC2C(c2cccc(C(=O)C(C)C)c2)N3)cc1C` (stereo not drawn) [Compound 17, N-(3,4-Dimethylphenyl)-4-(3-isobutyrylphenyl)-2,3,3a,4,5,9b-hexahydrofuro[3,2-c]quinoline-8-sulfonamide], the “fold drop in potency, para to meta position” value in series [1] is given as 7 fold.

With `Cc1ccc(NS(=O)(=O)c2ccc3c(c2)C2OCCC2C(c2ccc(C(O)C(C)C)cc2)N3)cc1C` (stereo not drawn) [Compound 15, N-(3,4-Dimethylphenyl)-4-(4-(1-hydroxy-2-methylpropyl)phenyl)-2,3,3a,4,5,9b-hexahydrofuro[3,2-c]-quinoline-8-sulfonamide], in [1] (EU-1 IC50 ratio), the “fold decreased potency compared to 14” value is reported as “approximately 4 fold”.

As for `COc1cccc2c1C(=O)c1c(O)c3c(c(O)c1C2=O)C[C@@](O)(C(=O)CO)C[C@@H]3O[C@H]1C[C@H](N)[C@H](O)[C@H](C)O1` [Dox, doxorubicin], the “CFU-GM and BFU-E colony numbers and size” value in series [2] was “significantly reduced”.

For `Cc1ccc(N(C)S(=O)(=O)c2ccc3c(c2)C2OCCC2C(c2ccc(C(=O)C(C)C)cc2)N3)cc1C` (stereo not drawn) [Compound 46, N-(3,4-Dimethylphenyl)-4-(4-isobutyrylphenyl)-N-methyl-2,3,3a,4,5,9b-hexahydrofuro[3,2-c]quinoline-8-sulfonamide], the “fold decreased potency compared to 14” value in series [1] (EU-1 IC50 ratio) came to 3 fold.

`Cc1ccc(NS(=O)(=O)c2ccc3c(c2)C2OCCC2C(c2ccc(C(=O)c4ccccc4)cc2)N3)cc1C` (stereo not drawn) [Compound 26, 4-(4-Benzoylphenyl)-N-(3,4-dimethylphenyl)-2,3,3a,4,5,9b-hexahydrofuro[3,2-c]quinoline-8-sulfonamide]: the “fold decreased potency compared to 14” value in series [1] (EU-1 IC50 ratio) is “approximately 6 fold”.

With `CC(=O)c1ccc(C2Nc3ccc(S(=O)(=O)Nc4ccc(C)c(C)c4)cc3C3OCCC23)cc1` (stereo not drawn) [Compound 13, 4-(4-Acetylphenyl)-N-(3,4-dimethylphenyl)-2,3,3a,4,5,9b-hexahydrofuro[3,2-c]quinoline-8-sulfonamide], the “binding to the MDM2 target” value on MDM2 [3] was “does not bind to the MDM2 target”. For the same molecule, the “fold increased potency compared to 2” value in series [1] is reported as “approximately 4 fold”.

Consider `CC(=O)c1cccc(C2Nc3ccc(S(=O)(=O)Nc4ccc(C)c(C)c4)cc3C3OCCC23)c1` (stereo not drawn) [Compound 16, 4-(3-Acetylphenyl)-N-(3,4-dimethylphenyl)-2,3,3a,4,5,9b-hexahydrofuro[3,2-c]quinoline-8-sulfonamide], for which the “fold drop in potency, para to meta position” value in [1] was 4 fold.

Consider `Cc1ccc(NS(=O)(=O)c2ccc3c(c2)[C@H]2OCC[C@H]2[C@@H](c2ccc(C(=O)C(C)C)cc2)N3)cc1C` [Compound 14d, (3aS,4S,9bS)-N-(3,4-Dimethylphenyl)-4-(4-isobutyrylphenyl)-2,3,3a,4,5,9b-hexahydrofuro[3,2-c]quinoline-8-sulfonamide], for which the “fold higher potency compared to the other three isomers” value in [1] (14d vs 14a–c) was 5- to 8 fold.

As for `Cc1ccc(NS(=O)(=O)c2ccc3c(c2)C2C=CCC2C(c2ccc(C(=O)O)cc2)N3)cc1C` (stereo not drawn) [MX69], the tolerability entry in series [4] was “well tolerated”.

As for `Cc1ccc(NS(=O)(=O)c2ccc3c(c2)C2NCCC2C(c2ccc(C(=O)C(C)C)cc2)N3)cc1C` (stereo not drawn) [Compound 30, N-(3,4-Dimethylphenyl)-4-(4-isobutyrylphenyl)-2,3,3a,4,5,9b-hexahydro-1H-pyrrolo[3,2-c]quinoline-8-sulfonamide], the “fold decreased potency compared to 14” value in series [1] (EU-1 IC50 ratio) is 6 fold.

Regarding `Cc1ccc(NS(=O)(=O)c2ccc3c(c2Cl)C2C=CCC2C(c2ccc(S(C)(=O)=O)cc2)N3)cc1C` (stereo not drawn) [Compound 44, 9-Chloro-N-(3,4-dimethylphenyl)-4-(4-(methylsulfonyl)phenyl)-3a,4,5,9b-tetrahydro-3H-cyclopenta[c]quinolone-8-sulfonamide], the “fold less potent than parent compound 42” value in series [1] (EU-1 IC50 ratio) was “approximately 6 fold”.

`Cc1ccc(NS(=O)(=O)c2ccc3c(c2)C2OCCC2C(c2ccc(C(=O)C4CCCCC4)cc2)N3)cc1C` (stereo not drawn) [Compound 25, 4-(4-(Cyclohexanecarbonyl)phenyl)-N-(3,4-dimethylphenyl)-2,3,3a,4,5,9b-hexahydrofuro[3,2-c]quinoline-8-sulfonamide]: the “fold decreased potency compared to 14” value in series [1] (EU-1 IC50 ratio) is “approximately 6 fold”.

Regarding `Cc1ccc(NS(=O)(=O)c2ccc3c(c2)C2C=CCC2C(c2ccc(C(=O)C(C)C)cc2)N3)cc1C` (stereo not drawn) [Compound 27, N-(3,4-Dimethylphenyl)-4-(4-isobutyrylphenyl)-3a,4,5,9b-tetrahydro-3H-cyclopenta[c]quinoline-8-sulfonamide], in series [1] (EU-1 IC50 ratio), the “fold decreased potency compared to 14” value is given as 5 fold.

For `Cc1ccc(N(C)S(=O)(=O)c2ccc3c(c2)C2OCCC2C(c2ccc(C(=O)C(C)C)cc2)N3C)cc1C` (stereo not drawn) [Compound 45, N-(3,4-Dimethylphenyl)-4-(4-isobutyrylphenyl)-N,5-dimethyl-2,3,3a,4,5,9b-hexahydrofuro[3,2-c]quinoline-8-sulfonamide], the “fold decreased potency compared to 14” value in [1] (EU-1 IC50 ratio) is 2 fold.

The IC50 is the concentration at which inhibition is half-maximal. The low end stands for higher potency, the high end for lower potency. Take `Cc1ccc(NS(=O)(=O)c2ccc3c(c2)C2OCCC2C(c2ccc(C(=O)C(C)C)cc2)N3)cc1C` (stereo not drawn) [Compound 14, N-(3,4-Dimethylphenyl)-4-(4-isobutyrylphenyl)-2,3,3a,4,5,9b-hexahydrofuro[3,2-c]quinoline-8-sulfonamide]: the “time after treatment at which downregulation of MDM2 and XIAP occurred” value at MDM2 [5] (MDM2 and XIAP) fell in the range of 2 to 4 h. Also, the MDM2 expression result at MDM2 [5] (dose-dependent) was “remarkable downregulation”. Further, the XIAP expression entry with XIAP is listed as “remarkable downregulation”. The concentration for half-maximal inhibition (IC50) lay within 300 to 400 nM in series [6] and 500 to 1200 nM in series [7]. In addition, the p53 expression result with p53, p21 and PUMA is reported as “increased expression of p53”. Moreover, in series [1], the “fold increased potency compared to 2” value is recorded as “approximately 4 fold”.

The values above are taken from publication PMC9128806 (Journal of medicinal chemistry, 2021).
